Laboratory results: publication PMC7238120, “Strong and Selective Inhibitory Effects of the Biflavonoid Selamariscina A against CYP2C8 and CYP2C9 Enzyme Activities in Human Liver Microsomes” (Pharmaceutics, 2020)
Like-named read-outs stand apart in the source and are kept apart here.

What was measured:
CYP2C9 = CYP2C9 (Homo sapiens, UniProt P11712); test: Inhibition of CYP2C9-catalyzed diclofenac 4-hydroxylation in pooled human liver microsomes; format: in vitro ADME; design: incubation mixtures containing pooled human liver microsomes (HLMs, XTreme 200, XenoTech); tissue XenoTech XTreme 200; host or cells: pooled human liver microsomes
Protocol: The inhibitory potential of the five biflavonoids on the metabolism of nine P450 probe substrates was evaluated using previously developed methods with minor modifications. Biflavonoids were dissolved in methanol. The final concentration of methanol in the incubation mixture was 1.0% (v/v). We used these P450 probe substrates: phenacetin for CYP1A2, coumarin for CYP2A6, bupropion for CYP2B6, amodiaquine for CYP2C8, diclofenac for CYP2C9, omeprazole for CYP2C19, dextromethorphan for CYP2D6, chlorzoxazone for CYP2E1 and midazolam for CYP3A (Table 1). […] The reaction was stopped by adding 50 μL of ice-cold acetonitrile containing 7 nM trimipramine (internal standard, IS). After centrifugation at 18,000 g (5 min, 4 °C), aliquots of supernatants were analyzed by LC-MS/MS (Shimadzu LCMS 8060 system, Shimadzu, Kyoto, Japan). All microsomal incubations were conducted in triplicate. We used HLMs to determine the mechanisms and constants (Ki values) for […] A inhibition of CYP1A2, CYP2B6, CYP2C8, CYP2C9 and CYP3A. […] The substrates were used at concentrations approximately near to their respective Km values. […] The other conditions were the same as in the cytochrome P450 inhibition study. […] Phenomenex, Torrance, CA, USA) and analyzed using a Shimadzu LCMS 8060 triple-quadrupole mass spectrometer coupled with a Nexera X2 ultra high-performance liquid chromatography system (Shimadzu, Kyoto, Japan) equipped with an electrospray ionization interface. The mobile phase consisted of 0.1% formic acid in water (A) and 0.1% formic acid in acetonitrile (B). […] The flow rate was 0.2 mL/min. Electrospray ionization was performed in positive-ion mode at 4000 V or in negative-ion mode at -3500 V. […] Quantitation was conducted in selected reaction monitoring (SRM) modes with the precursor-to-product ion transition for each metabolite (Table 1 and Table 2). We analyzed the data with Shimadzu LabSolution LC-MS software. The IC50 values were calculated by WinNonlin software (Pharsight, Mountain View, CA, USA). The type of inhibition and the apparent kinetic parameters for inhibitory activity (Ki) were determined by following several criteria: visual inspection of Dixon plots, Lineweaver-Burk double reciprocal plots, and secondary plots of Lineweaver-Burk plots versus biflavonoid concentrations, the size of the sum of squares of the residuals, Akaike Information Criteria values, the S.E. and 95% confidence interval of the parameter estimates from the nonlinear regression analysis using the WinNonlin software. The models tested included competitive, competitive partial, noncompetitive, noncompetitive partial, uncompetitive, uncompetitive partial, and mixed-type inhibition.

CYP2C19 = target: T1, CYP2C19 (Homo sapiens, UniProt P33261); test: Inhibition of CYP2C19 (omeprazole) activity in pooled human liver microsomes; format: in vitro ADME; details: substrate omeprazole 20 µM; pooled HLMs; read-out: IC50, P450 2C19
T1 construct: incubation mixtures containing pooled human liver microsomes (HLMs, XTreme 200, XenoTech); tissue XenoTech XTreme 200; host or cells: pooled human liver microsomes
Protocol: The inhibitory potential of the five biflavonoids on the metabolism of nine P450 probe substrates was evaluated using previously developed methods with minor modifications. Biflavonoids were dissolved in methanol. The final concentration of methanol in the incubation mixture was 1.0% (v/v). We used these P450 probe substrates: phenacetin for CYP1A2, coumarin for CYP2A6, bupropion for CYP2B6, amodiaquine for CYP2C8, diclofenac for CYP2C9, omeprazole for CYP2C19, dextromethorphan for CYP2D6, chlorzoxazone for CYP2E1 and midazolam for CYP3A (Table 1). The incubation mixtures containing pooled human liver microsomes (HLMs, XTreme 200, XenoTech), P450 probe substrates, and inhibitor (0~20 µM) were pre-incubated at 37 °C for 5 min. The concentration range of the inhibitor varied (0, 0.002, 0.005, 0.02, 0.05, and 0.2 µM for CYP2C8; 0, 0.02, 0.05, 0.2, 0.5, and 2 µM for CYP2C9; 0, 0.5, 2, 5, 10, and 20 µM for other P450 isoforms). After pre-incubation, a reduced nicotinamide adenine dinucleotide phosphate (NADPH) generation system containing 1 unit/ml G6PDH, 1.3 mM β- nicotinamide adenine dinucleotide phosphate (β- NADP^+), 3.3 mM MgCl2, and 3.3 mM G6P was added to initiate a reaction, and further incubated for 10 min at 37 °C. The reaction was stopped by adding 50 μL of ice-cold acetonitrile containing 7 nM trimipramine (internal standard, IS). After centrifugation at 18,000 g (5 min, 4 °C), aliquots of supernatants were analyzed by LC–MS/MS (Shimadzu LCMS 8060 system, Shimadzu, Kyoto, Japan). All microsomal incubations were conducted in triplicate.
All metabolites and the IS were separated on a Kinetex XB-C18 column (100 × 2.10 mm, 2.6 μm, 100 Å; Phenomenex, Torrance, CA, USA) and analyzed using a Shimadzu LCMS 8060 triple-quadrupole mass spectrometer coupled with a Nexera X2 ultra high-performance liquid chromatography system (Shimadzu, Kyoto, Japan) equipped with an electrospray ionization interface. The mobile phase consisted of 0.1% formic acid in water (A) and 0.1% formic acid in acetonitrile (B). The elution condition was set as 8% B (0–0.5 min), 8%→60% B (0.5–5 min), 60% B (5–6 min), 60%→8% B (6–6.1 min) and 8% B (6.1–9 min) for the analysis of metabolites of P450 probe substrates and set as 0%→40% B (0–1 min), 40%→50% B (1–5 min), 50%→0% B (5–5.1 min), and 0% B (5.1–8 min) for the analysis of metabolites of UGT probe substrates. The flow rate was 0.2 mL/min. Electrospray ionization was performed in positive-ion mode at 4000 V or in negative-ion mode at −3500 V. The optimum operating conditions were determined as follows: vaporizer temperature, 300 °C; capillary temperature, 350 °C; collision gas (argon) pressure, 1.5 mTorr. Quantitation was conducted in selected reaction monitoring (SRM) modes with the precursor-to-product ion transition for each metabolite (Table 1 and Table 2).
We analyzed the data with Shimadzu LabSolution LC–MS software. The IC50 values were calculated by WinNonlin software (Pharsight, Mountain View, CA, USA). The type of inhibition and the apparent kinetic parameters for inhibitory activity (Ki) were determined by following several criteria: visual inspection of Dixon plots, Lineweaver–Burk double reciprocal plots, and secondary plots of Lineweaver–Burk plots versus biflavonoid concentrations, the size of the sum of squares of the residuals, Akaike Information Criteria values, the S.E. and 95% confidence interval of the parameter estimates from the nonlinear regression analysis using the WinNonlin software. The models tested included competitive, competitive partial, noncompetitive, noncompetitive partial, uncompetitive, uncompetitive partial, and mixed-type inhibition.

[1] = substrate diclofenac 10 µM, pooled HLMs, read-out: IC50, P450 2C9

Sequence of CYP2C9 (P11712 whole entry): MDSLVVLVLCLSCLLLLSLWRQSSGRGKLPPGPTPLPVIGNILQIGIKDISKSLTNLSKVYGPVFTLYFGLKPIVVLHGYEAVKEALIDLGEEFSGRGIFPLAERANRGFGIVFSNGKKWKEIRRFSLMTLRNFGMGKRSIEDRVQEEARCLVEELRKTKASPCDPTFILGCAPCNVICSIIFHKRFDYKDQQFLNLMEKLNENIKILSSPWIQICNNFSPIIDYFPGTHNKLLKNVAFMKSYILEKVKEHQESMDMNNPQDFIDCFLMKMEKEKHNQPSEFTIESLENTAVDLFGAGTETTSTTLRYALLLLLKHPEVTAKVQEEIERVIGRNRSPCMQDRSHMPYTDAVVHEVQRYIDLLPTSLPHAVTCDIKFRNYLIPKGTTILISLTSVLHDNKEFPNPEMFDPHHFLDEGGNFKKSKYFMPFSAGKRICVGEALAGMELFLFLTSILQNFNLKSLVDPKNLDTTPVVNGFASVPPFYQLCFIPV
T1 sequence (P33261 whole entry): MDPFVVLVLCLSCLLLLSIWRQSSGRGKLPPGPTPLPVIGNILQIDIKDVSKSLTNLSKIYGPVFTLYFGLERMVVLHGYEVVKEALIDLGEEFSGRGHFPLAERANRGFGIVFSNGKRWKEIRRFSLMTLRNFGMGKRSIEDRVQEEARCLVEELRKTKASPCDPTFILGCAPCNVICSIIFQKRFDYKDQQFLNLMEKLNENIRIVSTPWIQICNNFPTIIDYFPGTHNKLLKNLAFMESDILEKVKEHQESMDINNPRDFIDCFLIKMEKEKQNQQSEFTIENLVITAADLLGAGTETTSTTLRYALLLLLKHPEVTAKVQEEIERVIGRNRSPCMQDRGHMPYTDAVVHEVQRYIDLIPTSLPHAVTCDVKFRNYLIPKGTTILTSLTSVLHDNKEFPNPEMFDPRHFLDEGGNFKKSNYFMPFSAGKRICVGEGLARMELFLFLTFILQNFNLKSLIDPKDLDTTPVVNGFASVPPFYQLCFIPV

| Compound | IC50 (CYP2C19) [µM] | IC50 (CYP2C9; [1]) [µM] | Mode of Inhibition, CYP2C9 diclofenac (CYP2C9; HLMs) | Ki (CYP2C9; HLMs, average ± standard error, triplicate) [µM] | inhibition at 10 min, 0.5 µM (CYP2C9; human, pooled human liver microsomes, probe diclofenac, inhibitor 0.5 μM, pooled HLMs) [%] | IC50 (CYP2C9) [µM] | inhibition at 10 min, 5 µM (CYP2C9; human, pooled human liver microsomes, probe diclofenac, inhibitor 5 μM, pooled HLMs) [%] |
| --- | --- | --- | --- | --- | --- | --- | --- |
| O=c1cc(-c2ccc(O)c(-c3c(O)cc(O)c4c(=O)cc(-c5ccc(O)cc5)oc34)c2)oc2cc(O)cc(O)c12 [amentoflavone] | 3.4 | – | – | – | – | 0.15 | – |
| CC(C)(O)c1ccccc1CC[C@@H](SCC1(CC(=O)O)CC1)c1cccc(/C=C/c2ccc3ccc(Cl)cc3n2)c1 [montelukast, reference compound] | > 50 | 9.73 | – | – | – | – | 31 |
| O=C1CC(c2cc(-c3c(O)ccc4c(=O)cc(-c5ccc(O)cc5)oc34)c(O)cc2O)Oc2cc(O)cc(O)c21 (stereo not shown) [selamariscina A] | 13.3 | 0.047 | Competitive | 0.032 ± 0.007 | 88.6 | – | – |

The next lines start with results.

| IC50 (CYP2C19) [µM] | IC50 (CYP2C9; [1]) [µM] | Mode of Inhibition, CYP2C9 diclofenac (CYP2C9; HLMs) | Ki (CYP2C9; HLMs, average ± standard error, triplicate) [µM] | inhibition at 10 min, 0.5 µM (CYP2C9; human, pooled human liver microsomes, probe diclofenac, inhibitor 0.5 μM, pooled HLMs) [%] | Compound | IC50 (CYP2C9) [µM] | inhibition at 10 min, 5 µM (CYP2C9; human, pooled human liver microsomes, probe diclofenac, inhibitor 5 μM, pooled HLMs) [%] |
| --- | --- | --- | --- | --- | --- | --- | --- |
| 3 | 0.21 | – | – | – | O=c1cc(-c2ccc(O)cc2)oc2c(-c3c(O)cc(O)c4c(=O)cc(-c5ccc(O)cc5)oc34)c(O)cc(O)c12 [cupressuflavone] | – | – |
| 6.4 | 0.15 | – | – | – | O=c1cc(-c2ccc(O)c(-c3c(O)cc4oc(-c5ccc(O)cc5)cc(=O)c4c3O)c2)oc2cc(O)cc(O)c12 [robustaflavone] | – | – |
| 5 | 0.2 | – | – | – | O=c1cc(-c2ccc(O)c(-c3c(-c4ccc(O)cc4)oc4cc(O)cc(O)c4c3=O)c2)oc2cc(O)cc(O)c12 [taiwaniaflavone] | – | – |
